Experimental data from PubChem BioAssay (NCI).
Where “and” joins values, the source holds several entries; their conditions need not be identical. Equal values may be shown once.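 Following 48 hours of exposure in 96-well plates, responses at five concentrations were used to interpolate endpoints linearly. Here, GI50 denotes the concentration required for 50% inhibition of growth. TGI: total growth inhibition.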

What was measured:
Test in all cases: inhibition of tumour cell growth, NCI panel, 48 h
[1] = system: SK-MEL-2 melanoma
[2] = system: SW-620 colon
[3] = system: CCRF-CEM leukemia
[4] = system: HL-60(TB) leukemia
[5] = system: 786-0 renal
[6] = system: MOLT-4 leukemia
[7] = system: HT29 colon
[8] = system: HCT-116 colon
[9] = system: CAKI-1 renal
[10] = system: HOP-62 NSCLC

| Compound | GI50 [1] | TGI [1] [µM] | GI50 [2] [nM] | TGI [2] [µM] | GI50 [3] | TGI [3] [µM] | GI50 [4] [µM] | TGI [4] [µM] | GI50 [5] [µM] | TGI [5] [µM] | GI50 [6] [µM] | TGI [6] [µM] | GI50 [7] [nM] | TGI [7] [µM] | GI50 [8] [nM] | TGI [8] [µM] | GI50 [9] [µM] | TGI [9] [µM] | TGI [10] [µM] | GI50 [10] [nM] |
| --- | --- | --- | --- | --- | --- | --- | --- | --- | --- | --- | --- | --- | --- | --- | --- | --- | --- | --- | --- | --- |
| CC1=CC(=O)c2[nH]c3ccccc3c2C1=O | 5.37 µM | 13.8 | 3940 | 7.65 | 3330 nM | 10.6 | 4.06 | 9.85 | 4.27 | 7.71 | 5.36 | 15.9 | 17600 | > 25 | 4440 | 7.93 | 14.4 | > 25 | > 25 |  |
| N#CC(/C(=N\NC(N)=S)C(=O)NC1C2CC3CC(C2)CC1C3)c1ccc(Cl)cc1 (centres undefined) |  | > 100 |  | > 100 |  | > 100 |  | > 100 |  | > 100 |  | > 100 |  | > 100 |  | > 100 |  | > 100 | > 100 |  |
| Nc1ccccc1C#Cc1ccccc1C#CCCCCO | 28.4 µM | > 100 | 25100 | 77.3 | 23200 nM | 78.7 | 23.2 | 51.8 | 16 | 37.7 | 22.7 | 68.1 | 15900 | 31.1 | 12900 | 26.6 | 22.8 | 67.1 | 33.5 | 10900 |
| CC(C)S(=O)(=O)n1c(N)nc2ccc(/C(=N/O)c3ccccc3)cc21 |  | 54.1 |  | 45.3 |  | 57.2 |  | 44.3 |  | > 100 |  | 52.2 |  | 36.8 |  | 40.2 |  | 76.9 | 40.8 |  |
| C/C(=N\N=C(N)N)c1sc(-c2nc(C)c(/C(C)=N/N=C(N)N)s2)nc1C |  | > 100 |  | > 100 |  | > 100 |  | 88.2 |  | > 68.5 |  | > 100 |  | > 100 |  | > 100 |  | > 100 | > 100 |  |
| COCCOCCOCCOCCOc1ccc2c(c1)C(=O)c1nc3ncccc3c(=O)n1-2 | 2.42 µM | 6.21 | 1150 | 2.36 | 2430 nM | 7.4 | 1.8 | 5.05 | 2.17 | 9.46 | 3.61 | > 100 | 1470 | 3.7 | 1560 | 4.46 | 0.663 | 2.02 | 2.18 | 744 |
| C(=C1/CCCCC([n+]2ccccc2)=N1)/c1ccccc1 |  | > 100 |  | > 100 |  | > 100 |  | > 100 |  | > 100 |  | > 100 |  | > 100 |  | > 100 |  | > 100 | > 100 |  |
| CCCCCCCCSC(SCCCCCCCC)=C1C(=O)N(c2ccccc2)N=C1C |  | > 100 |  | 29 |  | 44 |  | 43.7 |  | > 100 |  | 82.2 |  | > 100 |  | 38.7 |  | 90.7 | > 100 |  |
| C1CCN2CC34CC(CC5CCCN(C6CCCC3N6)C54)C2C1 (centres undefined) |  | > 100 |  | > 100 |  | > 100 |  | > 100 |  | > 100 |  | > 100 |  | > 100 |  | > 100 |  | > 100 | > 100 |  |
| O=C(/C=C/c1cccs1)Nc1ncc(Cc2ccccc2F)s1 | 0.518 µM | > 100 | 159 | > 100 | 254 nM | > 100 | 0.213 | 0.589 | 0.59 | > 100 | 0.378 | > 100 | 210 | > 100 | 273 | > 100 | 0.0753 | > 100 | > 100 | 407 |
| CN1C=CN(Cc2ccc(-c3ccccn3)nc2)[CH-]1.CN1C=CN(Cc2ccc(-c3ccccn3)nc2)[CH-]1.[Au+3] | 7.05 µM | 32.4 | 898 | 17.2 | 83.4 nM | 13.4 | 1.22 | 6.84 | 6.14 | > 100 | 1.1 | 12.4 | 1960 | > 100 | 2400 | 10.9 | 18.4 | > 100 | 25.8 | 8310 |
| O=C(Nc1ccc(-c2nc3ccc(NC(=O)c4ccc(Cl)cc4)cc3[nH]2)cc1)c1ccc(Cl)cc1 | 12.6 µM | 25.2 | 2350 | 8.46 | 433 nM | 4.41 | 4.12 | 16.2 | 0.308 | 2.26 | 0.901 | 8.31 | 2110 | 6.89 | 2710 | 10.8 | 7.12 | 23.7 | 9.07 | 2590 |
| COC(=N)/C(=C1\OC(N)=C(c2ccc(Cl)cc2)C1=O)c1ccc(Cl)cc1 |  | > 100 |  | > 100 |  | > 100 |  | > 100 |  | > 100 |  | > 100 |  | > 100 |  | > 100 |  | > 100 | > 100 |  |
| CCCC/C(C)=N/NC(N)=S |  | > 100 |  | > 100 |  | > 100 |  | > 100 |  | > 100 |  | > 100 |  | > 100 |  | > 100 |  | > 100 | > 100 |  |
| O=C(O)C(O)C(O)C1[O][Sb][O]C1CO (centres undefined) | 85.8 µM and 36.8 µM | > 100 | > 100000 | > 100 | 33300 nM and 18900 nM | > 100 | > 53.1 | > 100 | > 100 | > 100 | > 100 | > 100 | > 100000 | > 100 | > 100000 | > 100 | > 100 | > 100 | > 100 | > 100000 |
| Cc1ccc(C)c2sc3cc(=O)ccc-3nc12 |  | > 100 |  | > 100 |  | 70.3 |  | 38.8 |  | > 100 |  | 69.6 |  | > 100 |  | > 100 |  | 70.5 | > 100 |  |
| COc1cc(Nc2ncc(-c3ccccc3)o2)cc(OC)c1OC | 1.52 µM | > 11.6 | 986 | > 25 | 7320 nM | > 25 | 0.858 | > 9.44 | 5.13 | > 25 | 4.36 | > 25 | 951 | > 25 | 1450 | > 25 | 0.37 | > 25 | > 25 | 3470 |
| Cc1ccc(NC(=O)CCC(=O)C(C#N)c2ccc(Cl)cc2)cc1C (centres undefined) |  | > 100 |  | > 100 |  | > 100 |  | > 100 |  | > 100 |  | > 100 |  | > 100 |  | > 100 |  | > 100 | > 100 |  |
| O=C(N/N=C\c1cc(Cl)ccc1O)N/N=C/c1cc(Cl)ccc1O | > 100 µM | > 100 | 807 | > 100 | 2510 nM | > 100 | 6.22 | > 100 | > 100 | > 100 | 57.5 | > 100 | 9570 | > 100 | 565 | > 100 | 3.36 | > 100 | > 100 | 2490 |
